# Measured values taken from patent publication US20150132404A1, “Equine feed for the reduction of ulcers in performance horses” (priority 2013, published 2015).
# System: horses
# Test: Observation of horses fed the feed supplement mixture (testing of the product)
# Type: in vivo, horse
# Text: A dry horse feed supplement for the prevention and treatment of ulcers in horses, especially those involved in performance activities, provides a feed supplement mixture comprising a quantity of forage or filler product; a quantity of grain product, a quantity of protein product, a quantity of roughage product, essential vitamins and trace minerals, a yeast product, fat, molasses, a measured quantity of thiamine (Vitamin B1) and a measured quantity of sodium bicarbonate. The feed supplement mixture is fed to a horse based upon the total weight of the horse, in an amount between 0.50-1.50% of the body weight, depending upon the level of work and activity stress of the horse.
# The feed composition ingredients, delivered in the parameters set above with regard to content quantity by percentage includes the ingredients list, in order of most ingredient quantity to least ingredients quantity, provides the feed containing no less than 14% crude protein, 6.5% crude fat, a no more than 22% crude fiber, no less than 0.6% and no more than 1% calcium, no less than 0.3% phosphorus, as well as quantities of zinc, copper, selenium, Vitamin A and Vitamin E. There are special blends suited for older performance horses and other blends for various younger performance horses. […]
Structure (SMILES),pH level in the digestive tract (sodium bicarbonate at the recommended levels in the feed),effect on demeanor / stress level of the horse (fed in the feed supplement mixture at 0.5-1.5% of body weight)
O=C([O-])O.[Na+] [sodium bicarbonate],acts as a buffer and maintains an optimal ph level in the digestive tract,
Cc1ncc(C[n+]2csc(CCO)c2C)c(N)n1 [thiamine],,calming effect on horses
